pIC50: −log10 of the molar value. “Also recorded” adds a separate entry of the source. Read-outs that look alike come from different tables or passages of the source.
Key:
[1] = test system: H1437 cells; assay: Survival assay (MTT), H1437; assay type: cell-based; conditions: Homo sapiens, NCI-H1437
Method: (§1) Cells were passed between 70 and 90% confluence.
(§2) Cells were incubated with the drugs for 72 hours.

[2] = Multiple MTD, repeated dose; assay type: in vivo; conditions: mice, IP 300, 1000, 2000 mg/kg every three days, 5 doses
Method: The test compounds were dosed every three days for a total of 5 doses (q3dx5).
In addition, body weights were recorded before each treatment and at 24, 48 and 72 hours after the final administration.
Mice were injected with the indicated compound at the indicated dose intraperitoneally once every three days for a total of 5 doses.

[3] = test system: normal (non-cancerous) human cell lines; assay: Survival assay, panel of normal (non-cancerous) human cell lines; assay type: cell-based; conditions: normal human cell lines of Table 3
Method: as §2
(§3) The present inventors further investigated the extent to which these compounds kill normal human cells; low cytotoxicity against normal human cells is advantageous property for anti-cancer agents. The cytotoxicity of these compounds in various normal human cell lines was therefore investigated (Table 3). Cells were grown and the survival assay was performed as described above (Materials and Methods).

[4] = test system: Buffy C cells; assay: Survival assay (MTT), Buffy C; assay type: cell-based, human; conditions: Homo sapiens, Normal, Bone Marrow, 72 hours
Method: as §1, §2, §3

[5] = test system: human cancer cell lines; assay: Survival assay, range of human cancer cell lines; assay type: cell-based; conditions: cell lines of Table 1
Method: as §2
With the knowledge that 5-formyl-2′-deoxycytidine is cytotoxic to cervical carcinoma (HeLa) cells, the study was expanded in two directions: (i) a further compound was assessed: 5-carboxyl-2′-deoxycytidine; and (ii) their cytotoxic effects against a wide range of human cancer cell lines was assessed (Table 1).

[6] = test system: MIA PaCa-2 cells; assay: Survival assay (MTT), MIA PaCa-2; assay type: cell-based, human; conditions: Homo sapiens, MIA PaCa-2
Method: as §1, §2

[7] = test system: H1573 cells; assay: Survival assay (MTT), H1573; assay type: cell-based; conditions: Homo sapiens, NCI-H1573
Method: as §1, §2

[8] = test system: Buffy A cells; assay: Survival assay (MTT), Buffy A; assay type: cell-based, human; conditions: Homo sapiens, Normal, Bone Marrow, 72 hours
Method: as §1, §2, §3

[9] = test system: Arpe19 cells; assay: Survival assay (MTT), Arpe19; assay type: cell-based, human; conditions: Homo sapiens
Method: as §2, §3

[10] = test system: CB152 cells; assay: Survival assay (MTT), CB152; assay type: cell-based, human; conditions: Homo sapiens, CB152, Glioma, Grade IV, 72 hours
Method: as §1, §2

[11] = test system: V79 cells; assay: Survival assay (MTT), V79; assay type: cell-based; conditions: Cricetulus griseus, V79, Chinese Hamster Lung, 72 hours
Method: as §1, §2

[12] = test system: Buffy M cells; assay: Survival assay (MTT), Buffy M; assay type: cell-based, human; conditions: Homo sapiens, Normal, Bone Marrow, 72 hours
Method: as §1, §2, §3

[13] = mouse, in vivo, ip
Method: 5-hydroxymethyl-2′-deoxycytidine and 5-formyl-2′-deoxycytidine (Berry and Associates), were formulated in dimethyl sulfoxide (DMSO)/Solutol (RTM) R HS15/phosphate buffered saline (PBS) (5/5/90, v/v/v) at the concentration of 30 and 200 and 400 mg/mL for IP administration at the dosing volume of […]. A dosing volume at 10 or 20 ml/kg was applied.
Male ICR mice weighing 23±3 g were provided by BioLasco Taiwan (under Charles River Laboratories Licensee). […] All animals were maintained in a hygienic environment with controlled temperature (20-24° C.), humidity (30%-70%) and 12 hours light/dark cycles. Free access to sterilized standard lab diet [MFG (Oriental Yeast Co., Ltd., Japan)] and autoclaved tap water were granted.
5-hydroxymethyl-2′-deoxycytidine and 5-formyl-2′-deoxycytidine were administered IP to groups of three male ICR mice weighing 23±3 g. Animals received an initial dose of 300 mg/kg. If the animals survived for 72 hours, the dose for the next cohort was increased. If one or more animals died, the dose for the next cohort was decreased. The testing stopped when all animals survived at the upper bound, or when three dose levels had been tested or when the upper or lower bound had been reached. […] Body weights were recorded pre-dose and at 72 hours. […] Gross necropsy was performed on all animals without tissue collection, and the next dose level was determined based on the study design table.
The maximum tolerated dose (MTD) of these compounds in mice was determined as described above (Materials and Methods). […] While the end-point of the study was survival after 72 hours, the presence of acute toxic symptoms (mortality, convulsions, tremors, muscle relaxation, sedation, etc.) and autonomic effects (diarrhea, salivation, lacrimation, vasodilation, piloerection, etc.) in the animals was monitored during the first 30 minutes, and again at 1, 24, 48 and 72 hours. Body weights were recorded pre-dose and at 72 hours.

[14] = test system: Hypoxanthine-guanine phosphoribosyltransferase (HPRT) gene in V79 cells; assay: HPRT mutagenicity assay; assay type: cell-based, Chinese Hamster; conditions: V79 cells, 1, 10, 100 μM, 24 hours
Method: HPRT mutagenicity assay was performed in V79 cells. 50,000 V79 cells were treated with three different concentrations of either d5hmC or d5fC (1, 10, 100 μM) for 24 hours in a 6 well plate. DMSO was used as a negative control. After the treatment, the cells were subcultured as needed in T75 flasks for 9 days to allow expression of HPRT-mutants. 10,000 cells were replated into 10 replica Petri dishes (100×15 mm) with selective media (2.5 μg/ml of 6TG).
Survival (relative plating efficiency) was determined by plating 200 cells into four replica Petri dishes (60×15 mm) without selective media. Colonies were fixed, Giemsa-stained and counted 7 days later. The mutant frequency is expressed as a total number of mutants counted on all plates divided by the number of cells seeded corrected by reseeding plating efficiency. Experiment was performed three times, data represent mean of triplicate±SEM.

[15] = test system: HAP1 cells; assay: Survival assay (MTT), HAP1; assay type: cell-based, human
Method: as §2

[16] = test system: glioblastoma multiforme; conditions: glioblastoma multiforme patients; cited from earlier work
[17] = MIA PaCa-, Pancreatic Carcinoma, 72 hours, MTT
[18] = ARPE-19, 72 h, Arpe19, Normal, Ectoderm, 72 hours, MTT
[19] = ARPE-19, ARPE19, Tables 6 and 7, unit inferred
[20] = Homo sapiens, HAP1, HAP1, Tables 6 and 7, unit inferred

Nc1nc(=O)n([C@H]2C[C@H](O)[C@@H](CO)O2)cc1C=O [2d5fC, 5-formyl-2′-deoxycytidine]
pIC50 ([1]; H1437, Lung (metastatic non-small cell adenocarcinoma), 72 hours, MTT): 5.25 | pIC50 ([1]; H1437, Tables 6 and 7, unit inferred): 5.25 | body weight compared with untreated animals [2]: not statistically different | cytotoxicity to normal cell lines [3]: cytotoxic only to one normal human cell line | pIC50 [4]: < 4.60 | cytotoxicity in the cancer cell lines evaluated [5]: cytotoxic to a wide range of human cancer cells | pIC50 [6, 17]: 5.94 | pIC50 ([6]; Tables 6 and 7, unit inferred): 5.94 | pIC50 ([7]; H1573, Lung (metastatic adenocarcinoma), 72 hours, MTT): 5.11 | pIC50 ([7]; H1573, Tables 6 and 7, unit inferred): 5.11 | pIC50 [8]: < 4.60 | pIC50 [9, 18]: < 4.60 | pIC50 [9, 19]: ≤ 4.60 | pIC50 [10]: < 4.00 | pIC50 [11]: < 4.60 | pIC50 [12]: < 4.60 | tolerability of a single dose ([13]; 300 mg/kg): can tolerate | tolerability of a single dose ([13]; 2000 mg/kg): can tolerate | tolerability of a single dose ([13]; 8000 mg/kg): unable to tolerate | mutagenicity / genotoxicity (HPRT mutant frequency) [14]: not to be mutagenic; also recorded: not mutagens | pIC50 ([15]; Homo sapiens, HAP1, 72 h, HAP1, Chronic Myelogenous Leukemia (CML), 72 hours, MTT): < 4.60 | pIC50 [15, 20]: ≤ 4.60

Nc1nc(=O)n([C@H]2C[C@H](O)[C@@H](CO)O2)cc1CO [2d5hmC, 5-hydroxymethyl-2′-deoxycytidine]
body weight compared with untreated animals [2]: not statistically different | cytotoxicity to normal cell lines [3]: not cytotoxic to any of the normal cell lines evaluated | pIC50 [4]: < 4.60 | cytotoxicity in the cancer cell lines evaluated [5]: only cytotoxic to two cell lines evaluated | pIC50 [6, 17]: < 4.60 | pIC50 ([6]; Tables 6 and 7, unit inferred): ≤ 4.60 | pIC50 [8]: < 4.60 | pIC50 [9, 18]: < 4.60 | pIC50 [9, 19]: ≤ 4.60 | pIC50 [10]: < 4.00 | pIC50 [11]: < 4.60 | pIC50 [12]: < 4.60 | tolerability of a single dose ([13]; 300 mg/kg): can tolerate | tolerability of a single dose ([13]; 2000 mg/kg): can tolerate | tolerability of a single dose ([13]; 8000 mg/kg): unable to tolerate | mutagenicity / genotoxicity (HPRT mutant frequency) [14]: not to be mutagenic; also recorded: not mutagens | pIC50 ([15]; HAP1, Chronic Myelogenous Leukemia (CML), 72 hours, MTT): < 5.52 | pIC50 [15, 20]: 5.19

Cn1nnc2c(C(N)=O)ncn2c1=O [Temozolomide, 4-methyl-5-oxo-2,3,4,6,8-pentazabicyclo[4.3.0]nona-2,7,9-triene-9-carboxamide, reference compound]
pIC50 [6, 17]: < 4.60 | improvement of overall survival [16]: 2.5 months | pIC50 [9, 18]: < 4.60 | pIC50 [10]: < 4.00

— US12605397B2, “Deoxy-cytidine or uridine derivatives for use in cancer therapies” (HEMISPHERIAN AS, priority 2019, dated 2026)
